Measurements reported in publication PMC9519552, “Activation of the human insulin receptor by non-insulin-related peptides” (Nature Communications, 2022).
Read-outs that look alike come from different tables or passages of the source. Positions of bridges follow the written chain, without caps; N, C: chain ends. Residues, ends and D or L forms follow the SMILES beside them.

Assays:
human IR-A (holoIR-A) = target: T1, human IR-A (holoIR-A) (Homo sapiens, UniProt P06213); assay: holoIR-A competitive radioligand binding assay (scintillation proximity assay); conditions: for binding of the mutant peptide to hIR-A (in words): alanine substitution in IM172N22(-); for reduction in ki for hIR-A on substitution: relative to control peptide IM172N22 devoid of N-terminal phenylacetylation
T1 construct: expressed in transfected cells; host or cells: HEK293 (ATCC #CRL-1573), stably transfected; membrane preparation
T1 sequence (P06213 28-1370 isoform P06213-2 limits assumed): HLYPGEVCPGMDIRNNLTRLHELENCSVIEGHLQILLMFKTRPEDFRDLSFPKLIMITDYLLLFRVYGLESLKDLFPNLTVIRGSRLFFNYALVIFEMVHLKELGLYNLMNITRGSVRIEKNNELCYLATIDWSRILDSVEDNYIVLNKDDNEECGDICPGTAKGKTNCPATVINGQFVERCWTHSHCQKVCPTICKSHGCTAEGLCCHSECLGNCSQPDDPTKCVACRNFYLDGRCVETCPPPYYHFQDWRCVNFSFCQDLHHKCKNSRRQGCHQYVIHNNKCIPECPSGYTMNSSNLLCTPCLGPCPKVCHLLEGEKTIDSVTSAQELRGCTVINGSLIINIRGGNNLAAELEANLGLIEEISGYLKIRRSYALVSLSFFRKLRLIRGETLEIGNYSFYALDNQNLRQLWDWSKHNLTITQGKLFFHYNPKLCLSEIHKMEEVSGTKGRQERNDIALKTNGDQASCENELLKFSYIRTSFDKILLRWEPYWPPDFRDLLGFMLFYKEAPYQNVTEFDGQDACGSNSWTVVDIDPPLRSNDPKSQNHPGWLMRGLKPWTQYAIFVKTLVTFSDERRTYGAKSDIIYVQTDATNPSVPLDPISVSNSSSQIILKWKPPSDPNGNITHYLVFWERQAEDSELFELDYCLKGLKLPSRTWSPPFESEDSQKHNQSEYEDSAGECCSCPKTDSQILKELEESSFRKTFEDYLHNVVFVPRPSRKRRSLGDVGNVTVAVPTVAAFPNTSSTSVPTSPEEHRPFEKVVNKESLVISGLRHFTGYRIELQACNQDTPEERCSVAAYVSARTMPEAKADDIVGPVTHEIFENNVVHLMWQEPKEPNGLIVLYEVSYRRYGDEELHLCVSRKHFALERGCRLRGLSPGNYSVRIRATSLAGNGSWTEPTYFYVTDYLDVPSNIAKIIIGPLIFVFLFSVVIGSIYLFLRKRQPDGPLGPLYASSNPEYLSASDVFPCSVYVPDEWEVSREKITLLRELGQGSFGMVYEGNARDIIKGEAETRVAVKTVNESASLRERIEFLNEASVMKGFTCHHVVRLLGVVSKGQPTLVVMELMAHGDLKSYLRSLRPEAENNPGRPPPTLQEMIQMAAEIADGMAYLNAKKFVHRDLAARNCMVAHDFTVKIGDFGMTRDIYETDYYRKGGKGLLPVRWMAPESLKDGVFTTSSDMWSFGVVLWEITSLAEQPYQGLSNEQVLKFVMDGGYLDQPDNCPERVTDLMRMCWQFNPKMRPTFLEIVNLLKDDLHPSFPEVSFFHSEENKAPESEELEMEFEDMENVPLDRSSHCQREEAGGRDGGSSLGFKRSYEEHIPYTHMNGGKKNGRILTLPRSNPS
T1 sequence (P06213 763-1382 partner limits assumed): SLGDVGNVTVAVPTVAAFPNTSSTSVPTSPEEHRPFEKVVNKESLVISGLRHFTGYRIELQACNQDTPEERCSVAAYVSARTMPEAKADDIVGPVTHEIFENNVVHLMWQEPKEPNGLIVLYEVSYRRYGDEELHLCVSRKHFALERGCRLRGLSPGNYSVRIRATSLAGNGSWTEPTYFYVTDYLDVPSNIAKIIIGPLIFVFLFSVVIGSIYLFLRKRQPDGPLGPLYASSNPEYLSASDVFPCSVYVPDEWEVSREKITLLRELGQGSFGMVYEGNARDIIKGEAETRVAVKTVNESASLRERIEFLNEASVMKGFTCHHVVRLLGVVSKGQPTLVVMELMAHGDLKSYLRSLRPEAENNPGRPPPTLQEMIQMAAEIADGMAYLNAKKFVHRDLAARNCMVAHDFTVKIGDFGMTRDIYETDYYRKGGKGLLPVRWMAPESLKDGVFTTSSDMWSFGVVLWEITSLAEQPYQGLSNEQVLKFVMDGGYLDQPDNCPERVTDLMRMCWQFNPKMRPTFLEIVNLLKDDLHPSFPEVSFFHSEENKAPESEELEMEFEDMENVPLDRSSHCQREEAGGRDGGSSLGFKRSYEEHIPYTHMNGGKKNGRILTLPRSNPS
In short: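 Membranes from HEK293 cells stably expressing C9-tagged human IR-A were used in a WGA-bead SPA competition assay in 50 mM Tris-HCl pH 7.5, 150 mM NaCl, 0.1% fatty-acid-free BSA. Ten-point 3-fold dilutions were incubated 10 h at room temperature before scintillation counting. Percent specific inhibition was calculated after nonspecific-binding correction, from three independent runs.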

[1] = target: T2, human holoIR-A over-expressed in HEK293 cells (Homo sapiens, UniProt P06213); assay: Inhibition of hIR phosphorylation by peptides, co-incubated with BHI at its EC50 (ELISA); type: cell-based; conditions: for hIRA Phosph IC50 Run 1 / hIRA Phosph IC50 Run 2 / hIRA Phosph IC50 Run 3: inhibition of insulin-stimulated phosphorylation; for hIRA Phosph IC50 Run 1: BHI at its EC50, run 1; for hIRA Phosph IC50 Run 2: BHI at its EC50, run 2; for hIRA Phosph IC50 Run 3: BHI at its EC50, run 3; for IC50: read-out: hIRA Phosph IC50 Mean
T2 construct: expressed in transfected cells; host or cells: HEK293, stably transfected
T2 sequence (P06213 28-1370 isoform P06213-2 limits assumed): as the sequence (P06213 28-1370 isoform P06213-2 limits assumed) above
T2 sequence (P06213 763-1382 partner limits assumed): as the sequence (P06213 763-1382 partner limits assumed) above
In short: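 Phosphorylation ELISA (TMB, A450) after anti-C9 capture of lysates from stably transfected HEK293 cells expressing C-terminally C9-tagged human holoIR-A, serum-starved overnight in 0.1% BSA/DMEM. Percent specific response versus log concentration, from three independent runs on three days.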

[2] = IM172N22(-) mutant peptide set, mean of 3 runs, read-out: hIRA Binding Ki Mean
[3] = IM172N22(-) mutant peptide set, run 1, read-out: hIRA Binding Ki Run 1
[4] = IM172N22(-) mutant peptide set, run 2, read-out: hIRA Binding Ki Run 2
[5] = IM172N22(-) mutant peptide set, run 3, read-out: hIRA Binding Ki Run 3

Row | SMILES | Ki (human IR-A (holoIR-A); [2]) | Ki (human IR-A (holoIR-A); [3]) | Ki (human IR-A (holoIR-A); [4]) | Ki (human IR-A (holoIR-A); [5]) | binding of the mutant peptide to hIR-A (in words) (human IR-A (holoIR-A)) | hIRA Phosph IC50 Run 1 [1] | hIRA Phosph IC50 Run 2 [1] | hIRA Phosph IC50 Run 3 [1] | IC50 [1] | reduction in ki for hIR-A on substitution (human IR-A (holoIR-A)) | Ki (human IR-A (holoIR-A); read-out: hIRA Binding Ki Mean)
1 | CC[C@H](C)[C@H](NC(=O)[C@H](CCC(N)=O)NC(=O)[C@H](C)NC(=O)[C@H](Cc1c[nH]c2ccccc12)NC(=O)[C@H](CCC(=O)O)NC(=O)[C@H](CCC(=O)O)NC(=O)[C@H](CCC(=O)O)NC(=O)[C@H](C)NC(=O)[C@H](CO)NC(C)=O)C(=O)N[C@@H](CCC(=O)O)C(=O)N[C@H]1CSSC[C@@H](C(=O)N2CCC[C@H]2C(=O)N2CCC[C@H]2C(=O)N[C@@H](CO)C(=O)N[C@@H](CCC(=O)O)C(=O)N[C@@H](CO)C(N)=O)NC(=O)[C@H](CCCNC(=N)N)NC(=O)CNC(=O)[C@H](Cc2ccc(O)cc2)NC(=O)[C@H](C(C)C)NC(=O)[C@H](CCC(=O)O)NC1=O [Peptide L2A] (Ac-SAEEEWAQIECEVYGRCPPSES-NH2; disulfide 11-17) | > 5 µM | >5 µM | >5 µM | >5 µM | no detectable binding | 7.523 µM | 7.642 µM | 7.687 µM | 7.62 µM |  | 
2 | CC[C@H](C)[C@H](NC(=O)[C@H](CCC(N)=O)NC(=O)[C@H](C)NC(=O)[C@H](Cc1c[nH]c2ccccc12)NC(=O)[C@H](CCC(=O)O)NC(=O)[C@H](CCC(=O)O)NC(=O)[C@H](CCC(=O)O)NC(=O)[C@H](CC(C)C)NC(=O)[C@H](CO)NC(C)=O)C(=O)N[C@@H](CCC(=O)O)C(=O)N[C@H]1CSSC[C@@H](C(=O)N2CCC[C@H]2C(=O)N2CCC[C@H]2C(=O)N[C@@H](CO)C(=O)N[C@@H](CCC(=O)O)C(=O)N[C@@H](CO)C(N)=O)NC(=O)[C@H](CCCNC(=N)N)NC(=O)CNC(=O)[C@H](Cc2ccc(O)cc2)NC(=O)[C@H](C)NC(=O)[C@H](CCC(=O)O)NC1=O [Peptide V13A] (Ac-SLEEEWAQIECEAYGRCPPSES-NH2; disulfide 11-17) | 0.215 µM | 0.203 µM | 0.265 µM | 0.177 µM |  | 2.321 µM | 2.401 µM | 2.832 µM | 2.52 µM |  | 
3 | CC[C@H](C)[C@H](NC(=O)[C@H](CCC(N)=O)NC(=O)[C@H](C)NC(=O)[C@H](Cc1c[nH]c2ccccc12)NC(=O)[C@H](CCC(=O)O)NC(=O)[C@H](CCC(=O)O)NC(=O)[C@H](CCC(=O)O)NC(=O)[C@H](CC(C)C)NC(=O)[C@H](CO)NC(C)=O)C(=O)N[C@@H](CCC(=O)O)C(=O)N[C@H]1CSSC[C@@H](C(=O)N2CCC[C@H]2C(=O)N2CCC[C@H]2C(=O)N[C@@H](CO)C(=O)N[C@@H](CCC(=O)O)C(=O)N[C@@H](CO)C(N)=O)NC(=O)[C@H](CCCNC(=N)N)NC(=O)CNC(=O)[C@H](Cc2ccc(O)cc2)NC(=O)[C@H](C(C)C)NC(=O)[C@H](CCC(=O)O)NC1=O [IM172N22-] (Ac-SLEEEWAQIECEVYGRCPPSES-NH2; disulfide 11-17) |  | 0.00707 µM | 0.00806 µM | 0.00936 µM |  | 0.085 µM | 0.076 µM | 0.08 µM | 0.0803 µM |  | 0.00816 µM
4 | CC[C@H](C)[C@H](NC(=O)[C@H](CCC(N)=O)NC(=O)[C@H](C)NC(=O)[C@H](Cc1c[nH]c2ccccc12)NC(=O)[C@H](CCC(=O)O)NC(=O)[C@H](CCC(=O)O)NC(=O)[C@H](CCC(=O)O)NC(=O)[C@H](CC(C)C)NC(=O)[C@H](CO)NC(C)=O)C(=O)N[C@@H](CCC(=O)O)C(=O)N[C@H]1CSSC[C@@H](C(=O)N2CCC[C@H]2C(=O)N2CCC[C@H]2C(=O)N[C@@H](CO)C(=O)N[C@@H](CCC(=O)O)C(=O)N[C@@H](CO)C(N)=O)NC(=O)[C@H](CCCNC(=N)N)NC(=O)CNC(=O)[C@H](C)NC(=O)[C@H](C(C)C)NC(=O)[C@H](CCC(=O)O)NC1=O [Peptide Y14A] (Ac-SLEEEWAQIECEVAGRCPPSES-NH2; disulfide 11-17) | > 4.24 µM | > 1.21 µM | > 4.16 µM | > 4.24 µM | no detectable binding | >10 µM | >10 µM | >10 µM | > 10 µM |  | 

The next lines start with results.

Row | Ki (human IR-A (holoIR-A); [2]) | Ki (human IR-A (holoIR-A); [3]) | Ki (human IR-A (holoIR-A); [4]) | Ki (human IR-A (holoIR-A); [5]) | binding of the mutant peptide to hIR-A (in words) (human IR-A (holoIR-A)) | hIRA Phosph IC50 Run 1 [1] | hIRA Phosph IC50 Run 2 [1] | hIRA Phosph IC50 Run 3 [1] | IC50 [1] | reduction in ki for hIR-A on substitution (human IR-A (holoIR-A)) | SMILES | Ki (human IR-A (holoIR-A); read-out: hIRA Binding Ki Mean)
5 | 0.0255 µM | 0.029 µM | 0.02 µM | 0.0275 µM |  | 0.241 µM | 0.205 µM | 0.206 µM | 0.217 µM | lower than 5 fold | CC[C@H](C)[C@H](NC(=O)[C@H](CCC(N)=O)NC(=O)[C@H](C)NC(=O)[C@H](Cc1c[nH]c2ccccc12)NC(=O)[C@H](CCC(=O)O)NC(=O)[C@H](C)NC(=O)[C@H](CCC(=O)O)NC(=O)[C@H](CC(C)C)NC(=O)[C@H](CO)NC(C)=O)C(=O)N[C@@H](CCC(=O)O)C(=O)N[C@H]1CSSC[C@@H](C(=O)N2CCC[C@H]2C(=O)N2CCC[C@H]2C(=O)N[C@@H](CO)C(=O)N[C@@H](CCC(=O)O)C(=O)N[C@@H](CO)C(N)=O)NC(=O)[C@H](CCCNC(=N)N)NC(=O)CNC(=O)[C@H](Cc2ccc(O)cc2)NC(=O)[C@H](C(C)C)NC(=O)[C@H](CCC(=O)O)NC1=O [Peptide E4A] (Ac-SLEAEWAQIECEVYGRCPPSES-NH2; disulfide 11-17) | 
6 | 0.0037 µM | 0.00377 µM | 0.00311 µM | 0.00423 µM |  | 0.027 µM | 0.027 µM | 0.024 µM | 0.0262 µM |  | CC[C@H](C)[C@H](NC(=O)[C@H](CCC(N)=O)NC(=O)[C@H](C)NC(=O)[C@H](Cc1c[nH]c2ccccc12)NC(=O)[C@H](CCC(=O)O)NC(=O)[C@H](CCC(=O)O)NC(=O)[C@H](CCC(=O)O)NC(=O)[C@H](CC(C)C)NC(=O)[C@H](CO)NC(C)=O)C(=O)N[C@@H](CCCNC(=N)N)C(=O)N[C@H]1CSSC[C@@H](C(=O)N2CCC[C@H]2C(=O)N2CCC[C@H]2C(=O)N[C@@H](CO)C(=O)N[C@@H](CCC(=O)O)C(=O)N[C@@H](CO)C(N)=O)NC(=O)[C@H](CCCNC(=N)N)NC(=O)CNC(=O)[C@H](Cc2ccc(O)cc2)NC(=O)[C@H](C(C)C)NC(=O)[C@H](CCC(=O)O)NC1=O [Peptide E10R] (Ac-SLEEEWAQIRCEVYGRCPPSES-NH2; disulfide 11-17) | 
7 | 0.554 µM | 0.62 µM | 0.541 µM | 0.5 µM |  | 1.351 µM | 1.34 µM | 1.323 µM | 1.34 µM |  | CC[C@H](C)[C@H](NC(=O)[C@H](CCC(N)=O)NC(=O)[C@H](C)NC(=O)[C@H](Cc1c[nH]c2ccccc12)NC(=O)[C@H](CCCNC(=N)N)NC(=O)[C@H](CCC(=O)O)NC(=O)[C@H](CCC(=O)O)NC(=O)[C@H](CC(C)C)NC(=O)[C@H](CO)NC(C)=O)C(=O)N[C@@H](CCC(=O)O)C(=O)N[C@H]1CSSC[C@@H](C(=O)N2CCC[C@H]2C(=O)N2CCC[C@H]2C(=O)N[C@@H](CO)C(=O)N[C@@H](CCC(=O)O)C(=O)N[C@@H](CO)C(N)=O)NC(=O)[C@H](CCCNC(=N)N)NC(=O)CNC(=O)[C@H](Cc2ccc(O)cc2)NC(=O)[C@H](C(C)C)NC(=O)[C@H](CCC(=O)O)NC1=O [Peptide E5R] (Ac-SLEERWAQIECEVYGRCPPSES-NH2; disulfide 11-17) | 
8 | 0.0162 µM | 0.0146 µM | 0.0161 µM | 0.0178 µM |  | 0.078 µM | 0.103 µM | 0.088 µM | 0.0898 µM | lower than 5 fold | CC[C@H](C)[C@H](NC(=O)[C@H](CCC(N)=O)NC(=O)[C@H](C)NC(=O)[C@H](Cc1c[nH]c2ccccc12)NC(=O)[C@H](CCC(=O)O)NC(=O)[C@H](CCC(=O)O)NC(=O)[C@H](CCC(=O)O)NC(=O)[C@H](CC(C)C)NC(=O)[C@H](CO)NC(C)=O)C(=O)N[C@@H](CCC(=O)O)C(=O)N[C@H]1CSSC[C@@H](C(=O)N2CCC[C@H]2C(=O)N2CCC[C@H]2C(=O)N[C@@H](CO)C(=O)N[C@@H](CCC(=O)O)C(=O)N[C@@H](C)C(N)=O)NC(=O)[C@H](CCCNC(=N)N)NC(=O)CNC(=O)[C@H](Cc2ccc(O)cc2)NC(=O)[C@H](C(C)C)NC(=O)[C@H](CCC(=O)O)NC1=O [Peptide S22A] (Ac-SLEEEWAQIECEVYGRCPPSEA-NH2; disulfide 11-17) | 
